Source: US11566057B2, “Long-acting co-agonists of the glucagon and GLP-1 receptors” (Merck Sharp & Dohme Corp., priority 2017, dated 2023)
Where two headings read alike, the source gives them in different places. Numbered stars: 1 amine (or outer) side, 2 acyl side, 3 side chain; on linkers, the order of the positions; unused ones are H or OH. Square brackets hold non-standard residues; d marks the D form. Side chains are listed from the residue outwards. Peptide text beside a SMILES is read from it. * marks the point of attachment. C18 diacid = O=C(O)CCCCCCCCCCCCCCCCC(=O)*; C16 diacid = O=C(O)CCCCCCCCCCCCCCC(=O)*; γGlu = O=C(O)[C@H](CCC(=O)[*:2])N[*:1]; Met(O2) = CS(=O)(=O)CC[C@H](N)C(=O)O; αMeD = C[C@](N)(CC(=O)O)C(=O)O; αMeS = C[C@](N)(CO)C(=O)O; AEEA = NCCOCCOCC(=O)O; Aib = CC(C)(N)C(=O)O

What was measured:
human GLP1R = target: T1, human GLP1R (Homo sapiens, UniProt P43220); experiment: cAMP activity assay at the GLP-1 receptor (GLP1R); assay type: cell-based
T1 construct: expressed in transfected cells; growth medium holds Blasticidin and Hygromycin
T1 sequence (P43220 24-463): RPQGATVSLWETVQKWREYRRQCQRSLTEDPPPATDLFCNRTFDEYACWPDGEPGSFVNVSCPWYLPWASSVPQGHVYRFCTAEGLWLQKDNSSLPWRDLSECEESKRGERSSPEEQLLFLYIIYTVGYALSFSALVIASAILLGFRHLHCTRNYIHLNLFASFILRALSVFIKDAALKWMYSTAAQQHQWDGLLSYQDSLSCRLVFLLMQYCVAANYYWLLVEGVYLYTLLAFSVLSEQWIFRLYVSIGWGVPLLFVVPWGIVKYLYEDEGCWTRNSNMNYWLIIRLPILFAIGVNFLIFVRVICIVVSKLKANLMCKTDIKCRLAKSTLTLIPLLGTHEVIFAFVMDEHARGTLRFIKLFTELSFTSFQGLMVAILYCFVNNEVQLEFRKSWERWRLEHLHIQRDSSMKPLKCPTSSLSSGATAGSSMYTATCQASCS
Protocol: Activity of the peptides at the Glucagon receptor (GCGR) and GLP-1 receptor (GLP1R) was measured in a cAMP activity assay.
GCG/GLP-1 receptor co-agonist peptides were dissolved in 100% DMSO (dimethyl sulfoxide) and serially diluted to generate 10 point titrations. The peptide solutions were then transferred into 384-well assay plates (150 nL/well). Assay ready frozen cells expressing human GLP1R or human GCGR were suspended in growth media consisting of DMEM medium (GIBCO®), 10% FBS (GIBCO®), 1×NEAA(GIBCO®), 1×P/S (GIBCO®), 10 ug/mL Blasticidin (GIBCO®) and 200 μg/mL Hygromycin (GIBCO®). […] The cell suspensions (15 μL) were then added to the assay plates containing the peptide solutions (30,000 cells/well for human GCGR; 10,000 cells/well for human GLP1R). The cells were incubated for 1 hour at room temperature in the dark. Production of cAMP was determined using HitHunter™ cAMPXS kits (DiscoverX) following manufacturer protocol. The plates were incubated for overnight at room temperature in the dark. Luminescence was measured using an EnVision Multilabel plate reader (Perkin Elmer). Native GLP-1 and Glucagon (Bachem) are used as control peptides. EC50 values were calculated using uses a 4 parameter logistic fit based on the Levenberg-Marquardt algorithm.

human GCGR = target: T2, human GCGR (Homo sapiens, UniProt P47871); experiment: cAMP activity assay at the Glucagon receptor (GCGR); assay type: cell-based; conditions: for hGCGR/hGLP1R (hTone): ratio of GCGR EC50 to GLP1R EC50
T2 construct: expressed in transfected cells; growth medium holds Blasticidin and Hygromycin
T2 sequence (P47871 26-477): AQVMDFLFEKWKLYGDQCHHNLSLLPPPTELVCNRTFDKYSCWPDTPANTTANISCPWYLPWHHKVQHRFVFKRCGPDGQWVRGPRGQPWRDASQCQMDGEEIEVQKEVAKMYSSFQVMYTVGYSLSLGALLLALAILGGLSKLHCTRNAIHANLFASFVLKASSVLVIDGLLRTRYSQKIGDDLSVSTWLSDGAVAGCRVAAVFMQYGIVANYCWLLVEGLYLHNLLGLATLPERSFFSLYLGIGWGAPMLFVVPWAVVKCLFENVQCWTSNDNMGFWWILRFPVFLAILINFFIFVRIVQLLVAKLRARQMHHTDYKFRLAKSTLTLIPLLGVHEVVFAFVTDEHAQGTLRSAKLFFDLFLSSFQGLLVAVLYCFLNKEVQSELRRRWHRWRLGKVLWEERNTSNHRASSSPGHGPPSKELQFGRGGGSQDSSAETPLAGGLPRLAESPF
Summary of the method: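 Peptides serially diluted from DMSO (10 points) and added to frozen-stock cells bearing human GLP1R (10,000 cells/well) or GCGR (30,000 cells/well), 1 h at RT, dark. EC50 by four-parameter logistic fit of HitHunter cAMPXS luminescence, read following overnight RT incubation.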

[1] = summary statement: EC50 at each of the glucagon and GLP-1 receptors, read-out: EC50 at the GLP-1 receptor
[2] = summary statement: EC50 at each of the glucagon and GLP-1 receptors, read-out: EC50 at the glucagon receptor
[3] = cells expressing human GCGR, cAMP production, buffer with or without 20% human serum (not stated which), read-out: GCGR EC50 human

EC50 (human GLP1R; [1])	hGCGR/hGLP1R (hTone) (human GCGR)	EC50 (human GCGR; [2])	EC50 (human GLP1R; cells expressing human GLP1R, cAMP production, buffer with or without 20% human serum (not stated which), read-out: GLP1R EC50 human)	EC50 (human GCGR; [3])	Compound
< 5 nM	2.3	< 5 nM		0.2 nM	CC(C)C[C@H](NC(=O)[C@H](Cc1ccc(O)cc1)NC(=O)[C@H](CCCCN)NC(=O)[C@H](CO)NC(=O)[C@H](Cc1ccc(O)cc1)NC(=O)[C@H](CC(=O)O)NC(=O)[C@H](CO)NC(=O)[C@@H](NC(=O)[C@H](Cc1ccccc1)NC(=O)[C@@H](NC(=O)CNC(=O)[C@H](CCC(N)=O)NC(=O)C(C)(C)NC(=O)[C@@H](N)Cc1c[nH]cn1)[C@@H](C)O)[C@@H](C)O)C(=O)N[C@@H](CC(=O)O)C(=O)N[C@@H](C)C(=O)N[C@@H](CCCNC(=N)N)C(=O)N[C@@H](C)C(=O)N[C@@H](C)C(=O)N[C@@H](CCCCNC(=O)COCCOCCNC(=O)COCCOCCNC(=O)CC[C@H](NC(=O)CCCCCCCCCCCCCCC(=O)O)C(=O)O)C(=O)N[C@@H](CCC(=O)O)C(=O)N[C@@H](Cc1ccccc1)C(=O)N[C@H](C(=O)N[C@@H](CCC(N)=O)C(=O)N[C@@H](Cc1c[nH]c2ccccc12)C(=O)N[C@@H](CC(C)C)C(=O)N[C@@H](CCS(C)(=O)=O)C(=O)N[C@@H](CC(=O)O)C(=O)N[C@H](C(N)=O)[C@@H](C)O)C(C)C [TP812] (H-H[Aib]QGTFTSDYSKYLDARAAK([AEEA-AEEA-γGlu-C16 diacid])EFVQWL[Met(O2)]DT-NH2)
< 5 nM	1.6	< 5 nM		0.21 nM	CC(C)C[C@H](NC(=O)[C@H](Cc1ccc(O)cc1)NC(=O)[C@H](CCCCN)NC(=O)[C@H](CO)NC(=O)[C@H](Cc1ccc(O)cc1)NC(=O)[C@H](CC(=O)O)NC(=O)[C@H](CO)NC(=O)[C@@H](NC(=O)[C@H](Cc1ccccc1)NC(=O)[C@@H](NC(=O)CNC(=O)[C@H](CCC(N)=O)NC(=O)C(C)(C)NC(=O)[C@@H](N)Cc1c[nH]cn1)[C@@H](C)O)[C@@H](C)O)C(=O)N[C@@H](CC(=O)O)C(=O)N[C@@H](C)C(=O)N[C@@H](CCCNC(=N)N)C(=O)N[C@@H](C)C(=O)N[C@@H](C)C(=O)N[C@@H](CCC(N)=O)C(=O)N[C@@H](CCC(=O)O)C(=O)N[C@@H](Cc1ccccc1)C(=O)N[C@H](C(=O)N[C@@H](CCCCNC(=O)COCCOCCNC(=O)COCCOCCNC(=O)CC[C@H](NC(=O)CCCCCCCCCCCCCCC(=O)O)C(=O)O)C(=O)N[C@@H](Cc1c[nH]c2ccccc12)C(=O)N[C@@H](CC(C)C)C(=O)N[C@@H](CCS(C)(=O)=O)C(=O)N[C@@H](CC(=O)O)C(=O)N[C@H](C(N)=O)[C@@H](C)O)C(C)C [TP813] (H-H[Aib]QGTFTSDYSKYLDARAAQEFVK([AEEA-AEEA-γGlu-C16 diacid])WL[Met(O2)]DT-NH2; N-terminus assumed)

Continued, molecule first:

Compound	EC50 (human GLP1R; [1])	hGCGR/hGLP1R (hTone) (human GCGR)	EC50 (human GCGR; [2])	EC50 (human GLP1R; cells expressing human GLP1R, cAMP production, buffer with or without 20% human serum (not stated which), read-out: GLP1R EC50 human)	EC50 (human GCGR; [3])
CC(C)C[C@H](NC(=O)[C@H](Cc1ccc(O)cc1)NC(=O)[C@H](CCCCN)NC(=O)[C@H](CO)NC(=O)[C@H](Cc1ccc(O)cc1)NC(=O)[C@H](CC(=O)O)NC(=O)[C@H](CO)NC(=O)[C@@H](NC(=O)[C@H](Cc1ccccc1)NC(=O)[C@@H](NC(=O)CNC(=O)[C@H](CCC(N)=O)NC(=O)C(C)(C)NC(=O)[C@@H](N)Cc1c[nH]cn1)[C@@H](C)O)[C@@H](C)O)C(=O)N[C@@H](CC(=O)O)C(=O)N[C@@H](C)C(=O)N[C@@H](CCCNC(=N)N)C(=O)N[C@@H](C)C(=O)N[C@@H](C)C(=O)N[C@@H](CCCCNC(=O)COCCOCCNC(=O)COCCOCCNC(=O)CC[C@H](NC(=O)CCCCCCCCCCCCCCCCC(=O)O)C(=O)O)C(=O)N[C@@H](CC(=O)O)C(=O)N[C@@H](Cc1ccccc1)C(=O)N[C@H](C(=O)N[C@@H](CCC(N)=O)C(=O)N[C@@H](Cc1c[nH]c2ccccc12)C(=O)N[C@@H](CC(C)C)C(=O)N[C@@H](CCS(C)(=O)=O)C(=O)N[C@@](C)(CC(=O)O)C(=O)N[C@H](C(=O)O)[C@@H](C)O)C(C)C [TP735] (H-H[Aib]QGTFTSDYSKYLDARAAK([AEEA-AEEA-γGlu-C18 diacid])DFVQWL[Met(O2)][αMeD]T-OH; N-terminus assumed)	< 5 nM	1.4	< 5 nM		
CC(C)C[C@H](NC(=O)[C@H](Cc1ccc(O)cc1)NC(=O)[C@H](CCCCN)NC(=O)[C@H](CO)NC(=O)[C@H](Cc1ccc(O)cc1)NC(=O)[C@H](CC(=O)O)NC(=O)[C@H](CO)NC(=O)[C@@H](NC(=O)[C@H](Cc1ccccc1)NC(=O)[C@@H](NC(=O)CNC(=O)[C@H](CCC(N)=O)NC(=O)[C@](C)(CO)NC(=O)[C@@H](N)Cc1c[nH]cn1)[C@@H](C)O)[C@@H](C)O)C(=O)N[C@@H](CC(=O)O)C(=O)N[C@@H](C)C(=O)N[C@@H](CCCNC(=N)N)C(=O)N[C@@H](C)C(=O)N[C@@H](C)C(=O)N[C@@H](CCC(N)=O)C(=O)N[C@@H](CCCCNC(=O)COCCOCCNC(=O)COCCOCCNC(=O)CC[C@H](NC(=O)CCCCCCCCCCCCCCCCC(=O)O)C(=O)O)C(=O)N[C@@H](Cc1ccccc1)C(=O)N[C@H](C(=O)N[C@@H](CCC(N)=O)C(=O)N[C@@H](Cc1c[nH]c2ccccc12)C(=O)N[C@@H](CC(C)C)C(=O)N[C@@H](CCS(C)(=O)=O)C(=O)N[C@@](C)(CC(=O)O)C(=O)N[C@H](C(N)=O)[C@@H](C)O)C(C)C [TP617] (H-H[αMeS]QGTFTSDYSKYLDARAAQK([AEEA-AEEA-γGlu-C18 diacid])FVQWL[Met(O2)][αMeD]T-NH2)	< 5 nM	0.8	< 5 nM	0.76 nM	
CC(C)C[C@H](NC(=O)[C@H](Cc1ccc(O)cc1)NC(=O)[C@H](CCCCN)NC(=O)[C@H](CO)NC(=O)[C@H](Cc1ccc(O)cc1)NC(=O)[C@H](CC(=O)O)NC(=O)[C@H](CO)NC(=O)[C@@H](NC(=O)[C@H](Cc1ccccc1)NC(=O)[C@@H](NC(=O)CNC(=O)[C@H](CCC(N)=O)NC(=O)[C@](C)(CO)NC(=O)[C@@H](N)Cc1c[nH]cn1)[C@@H](C)O)[C@@H](C)O)C(=O)N[C@@H](CC(=O)O)C(=O)NC(C)(C)C(=O)N[C@@H](CCCNC(=N)N)C(=O)N[C@@H](C)C(=O)N[C@@H](C)C(=O)N[C@@H](CCC(N)=O)C(=O)N[C@@H](CCCCNC(=O)COCCOCCNC(=O)COCCOCCNC(=O)CC[C@H](NC(=O)CCCCCCCCCCCCCCCCC(=O)O)C(=O)O)C(=O)N[C@@H](Cc1ccccc1)C(=O)N[C@H](C(=O)N[C@@H](CCC(N)=O)C(=O)N[C@@H](Cc1c[nH]c2ccccc12)C(=O)N[C@@H](CC(C)C)C(=O)N[C@@H](CCS(C)(=O)=O)C(=O)N[C@@](C)(CC(=O)O)C(=O)N[C@H](C(N)=O)[C@@H](C)O)C(C)C [TP621] (H-H[αMeS]QGTFTSDYSKYLD[Aib]RAAQK([AEEA-AEEA-γGlu-C18 diacid])FVQWL[Met(O2)][αMeD]T-NH2)	< 5 nM	0.1	< 5 nM		0.25 nM
